US20220387457A1 (Qlaris Bio, Inc., priority 2020, published 2022)
Like-named read-outs stand apart in the source and are kept apart here.

Assays:
[1] = Concentration of CKLP1 and levcromakalim in ocular and systemic tissues of hound dogs; assay type: in vivo, hound dog; settings: for concentration at 23 h: hound, dog, 23 hours after last dose
Method: After blood collection for pharmacokinetic studies, bilateral ocular treatment with CKLP1 (10 mM) continued in the hound dogs for 4-5 additional days.
For ocular tissue collection, eyes were enucleated and aqueous humor, vitreous humor, trabecular meshwork, optic nerve, ciliary body, iris, retina and cornea were isolated and stored at −80° C. While collecting tissues during necropsy, portions of heart, kidney, lung, brain, liver and skeletal muscle were immediately frozen for pharmacodynamics analysis, while the remaining tissue samples were immediately fixed in 10% neutral buffered formalin.
(§1) Immediately prior to analysis, tissues were thawed and their weight was measured. PBS was added at double the tissue volume homogenized in a rotor stator homogenizer for 30 seconds. […] Detection was accomplished using positive electrospray ionization with multiple-reaction monitoring (MRM). […] Data were acquired and analyzed using Waters MassLynx v4.1 software.

[2] = target: T1, human Kir6.2/SUR2B KATP channel (Homo sapiens, UniProt O60706); assay: FLIPR membrane potential assay in HEK-Kir6.2/SUR2B cells; assay type: cell-based
T1 construct: expressed in transfected cells
Method: The ability of CKLP1 and the active moiety of CKLP1, leveromakalim, to pharmacologically modulate the function of the human ATP-sensitive potassium channel comprised of Kir6.2 (encoded by the human gene KCNJ11) coupled to the sulfonylurea receptor SUR2B (encoded by the human gene ABCC9) was studied.
Compounds were dissolved up to 10 mM stock solution in DMSO. Ten-point concentration response curves were generated at 100× concentration in 100% DMSO. Compound source plates were made by serially diluting 10 mM compound stocks in DMSO to generate a progressive semilog dilution schema. Dose response stock plate (10 μL) were then transferred into assay plates containing 90 μL of assay buffer, generating 10× working concentrations. Final assay test concentration ranges of 100 μM to 0.003 μM with a final DMSO concentration of 1.0%.
Human embryonic kidney (HEK) cells stably expressing human Kir6.2/SUR2B KATP channel subunits were plated onto 96 well, black poly-d-lysine (PDL)-coated microplates and maintained in growth media the day prior to use for experiments. Media was removed from the plates and 90 μL of 1× stock of the membrane potential sensitive fluorescent dye FMP-Blue resuspended in assay buffer (EBSS—in mM: NaCl 145, KCl 2, Glucose 5, CaCl2) 1.8, MgCl2 0.8, HEPES 10, pH 7.4 with NaOH, 290-300 mOSm) was added to the cells. Cells were incubated at room temperature, protected from light, for 45-60 minutes. After the incubation period, cell, test compound and glibenclamide plates were loaded onto the fluorescence plate reader (FLIPR-TETRA™) and the scanning initiated. The FLIPR measured a 10 second baseline and then added 10 μL of 10× the final desired concentration of test agent. Changes in fluorescence were monitored for an additional 5 minutes. After the 5-minute compound incubation, 10 μL of the receptor inhibitor glibenclamide was added to the cell plate (10 uM final glibenclamide concentration). Changes in fluorescence was then monitored for an additional 5 minutes.
Compound modulation of Kir6.2/SUR2B KATP channel mediated changes in cellular membrane potential was determined as follows. After the administration of compound, FMP fluorescence was monitored for a 5-minute period. The following parameters were recorded and exported from the FLIPR: the average relative fluorescence response (RFU) of 5 images taken at the 5-minute point in the assay with the average background EBSS buffer response subtracted. […] Test agent effect was calculated as % activation using the following formula: […]
Curve fits were performed in GraphPad Prism graphing software using a 4-parameter, variable slope fit equation.

[3] = Plasma pharmacokinetics of CKLP1 and levcromakalim after topical dosing in hound dogs; assay type: in vivo, hound dog
Method: To assess the pharmacokinetic parameters, hound dogs (n=3) were treated with 50 μL topical ocular administration of 10 mM CKLP1 or vehicle (PBS) (n=2) in both eyes, once daily for eight days. Blood (approximately 3 mL) was collected in heparin blood collection tubes at eight different time points (5 minutes, 15 minutes, 30 minutes, 60 minutes, 2 hours, 4 hours, 8 hours and 24 hours) following treatment on days 1, 4 and 8. Plasma was separated from the blood by centrifugation at 2000 rpm for 5 minutes.
as §1

[4] = hound, dog, plasma, topical or ocular, 10 mM CKLP1, 50 µL in each of both eyes, levcromakalim after topical 10 mM CKLP1 once daily, Day 1
[5] = hound, dog, plasma, topical or ocular, 10 mM CKLP1, 50 µL in each of both eyes, levcromakalim after topical 10 mM CKLP1 once daily, Day 4
[6] = hound, dog, plasma, topical or ocular, 10 mM CKLP1, 50 µL in each of both eyes, levcromakalim after topical 10 mM CKLP1 once daily, Day 8
[7] = levcromakalim after topical 10 mM CKLP1 once daily, Day 1
[8] = levcromakalim after topical 10 mM CKLP1 once daily, Day 4
[9] = levcromakalim after topical 10 mM CKLP1 once daily, Day 8

T1 sequence (O60706 1-1549 isoform O60706-2): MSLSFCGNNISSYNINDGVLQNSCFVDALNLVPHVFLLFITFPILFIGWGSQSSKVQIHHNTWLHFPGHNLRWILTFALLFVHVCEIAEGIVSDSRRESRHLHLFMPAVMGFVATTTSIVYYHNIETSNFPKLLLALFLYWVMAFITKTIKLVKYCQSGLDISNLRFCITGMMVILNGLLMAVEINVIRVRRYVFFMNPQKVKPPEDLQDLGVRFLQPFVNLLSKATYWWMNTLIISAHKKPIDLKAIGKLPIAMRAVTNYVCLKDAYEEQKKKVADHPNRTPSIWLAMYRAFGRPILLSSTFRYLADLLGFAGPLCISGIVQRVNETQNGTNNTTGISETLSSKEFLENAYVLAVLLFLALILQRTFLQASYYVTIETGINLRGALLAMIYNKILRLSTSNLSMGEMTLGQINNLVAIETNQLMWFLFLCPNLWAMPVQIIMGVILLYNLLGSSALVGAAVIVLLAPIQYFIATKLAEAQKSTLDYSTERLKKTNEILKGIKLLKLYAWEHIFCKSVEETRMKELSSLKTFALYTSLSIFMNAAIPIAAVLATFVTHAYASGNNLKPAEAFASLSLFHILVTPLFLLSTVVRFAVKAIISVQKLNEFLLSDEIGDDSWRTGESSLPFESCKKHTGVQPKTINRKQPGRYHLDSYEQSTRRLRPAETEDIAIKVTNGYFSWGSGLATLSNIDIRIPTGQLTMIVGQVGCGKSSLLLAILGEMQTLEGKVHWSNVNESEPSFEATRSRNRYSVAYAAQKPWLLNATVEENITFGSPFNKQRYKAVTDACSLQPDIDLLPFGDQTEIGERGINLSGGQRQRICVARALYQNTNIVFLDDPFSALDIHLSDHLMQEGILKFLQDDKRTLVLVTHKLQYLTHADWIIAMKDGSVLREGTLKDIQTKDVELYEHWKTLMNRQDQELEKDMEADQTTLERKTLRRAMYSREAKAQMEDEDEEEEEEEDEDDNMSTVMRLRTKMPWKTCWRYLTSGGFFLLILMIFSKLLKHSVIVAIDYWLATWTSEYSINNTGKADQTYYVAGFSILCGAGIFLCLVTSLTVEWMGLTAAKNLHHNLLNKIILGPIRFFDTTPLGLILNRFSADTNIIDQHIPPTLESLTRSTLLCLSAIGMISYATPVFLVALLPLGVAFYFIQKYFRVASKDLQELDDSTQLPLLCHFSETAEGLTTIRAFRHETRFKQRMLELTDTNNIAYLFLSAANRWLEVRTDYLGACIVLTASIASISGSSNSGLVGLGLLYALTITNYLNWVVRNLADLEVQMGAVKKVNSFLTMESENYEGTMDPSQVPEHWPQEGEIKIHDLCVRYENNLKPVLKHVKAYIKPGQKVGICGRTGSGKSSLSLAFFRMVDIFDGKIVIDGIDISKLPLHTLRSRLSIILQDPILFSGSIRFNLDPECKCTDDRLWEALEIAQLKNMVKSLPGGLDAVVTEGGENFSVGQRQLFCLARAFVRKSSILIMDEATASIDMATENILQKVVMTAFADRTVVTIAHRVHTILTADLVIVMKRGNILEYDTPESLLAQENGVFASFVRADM
T1 sequence (Q14654 whole entry partner): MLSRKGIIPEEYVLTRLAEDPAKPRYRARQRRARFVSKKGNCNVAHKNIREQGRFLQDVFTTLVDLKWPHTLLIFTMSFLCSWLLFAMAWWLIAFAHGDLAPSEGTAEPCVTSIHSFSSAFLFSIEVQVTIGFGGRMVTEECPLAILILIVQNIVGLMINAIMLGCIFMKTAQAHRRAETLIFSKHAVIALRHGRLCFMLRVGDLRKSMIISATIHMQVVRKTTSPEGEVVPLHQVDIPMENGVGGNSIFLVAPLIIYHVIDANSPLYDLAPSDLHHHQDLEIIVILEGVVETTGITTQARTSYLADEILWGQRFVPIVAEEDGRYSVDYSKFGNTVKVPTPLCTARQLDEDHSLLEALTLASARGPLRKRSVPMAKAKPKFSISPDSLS

Question: With `CC1(C)Oc2ccc(C#N)cc2[C@@H](N2CCCC2=O)[C@@H]1O` [Levcromakalim, levcromakalim, reference compound] as the compound, how does the concentration at 23 h ([1]; aqueous humor, topical 10 mM CKLP1 12-13 days, two animals, read-out: concentration in aqueous humor) read?
Answer: 1.1 ± 1.5 ng/mL

Question: What about the concentration at 23 h ([1]; ciliary body, topical 10 mM CKLP1 12-13 days, two animals, read-out: concentration in ciliary body) of the same compound?
Answer: < 1 ng/g

Question: And the concentration at 23 h ([1]; cornea, topical 10 mM CKLP1 12-13 days, two animals, read-out: concentration in cornea)?
Answer: 1.4 ± 0.3 ng/g

Question: And the concentration at 23 h ([1]; heart, topical 10 mM CKLP1 12-13 days, read-out: concentration in heart)?
Answer: 0.9 ± 0.8 ng/g

Question: And the concentration at 23 h ([1]; iris, topical 10 mM CKLP1 12-13 days, two animals, read-out: concentration in iris)?
Answer: < 1 ng/g

Question: What about the concentration at 23 h ([1]; kidney, topical 10 mM CKLP1 12-13 days, read-out: concentration in kidney) of the same compound?
Answer: 0.8 ± 1.2 ng/g

Question: And the concentration at 23 h ([1]; lung, topical 10 mM CKLP1 12-13 days, read-out: concentration in lung)?
Answer: 0.3 ± 0.4 ng/g

Question: What about the concentration at 23 h ([1]; optic nerve, topical 10 mM CKLP1 once daily 12-13 days, two animals, read-out: concentration in optic nerve) of the same compound?
Answer: < 1 ng/g

Question: And the concentration at 23 h ([1]; retina, topical 10 mM CKLP1 12-13 days, two animals, read-out: concentration in retina)?
Answer: < 1 ng/g

Question: What about the concentration at 23 h ([1]; trabecular meshwork, topical 10 mM CKLP1 12-13 days, two animals, read-out: concentration in trabecular meshwork) of the same compound?
Answer: 2 ± 0.5 ng/g

Question: And the concentration at 23 h ([1]; vitreous humor, topical 10 mM CKLP1 12-13 days, two animals, read-out: concentration in vitreous humor)?
Answer: < 1 ng/g

Question: And the concentration in urine ([1]; topical 10 mM CKLP1 12-13 days)?
Answer: 3.7 ± 4.5 ng/mL

Question: And the “hyperpolarization reversed by coadministration of glibenclamide” value ([2]; glibenclamide 10 μM)?
Answer: reversed

Question: And the “hyperpolarization / activation of Kir6.2/SUR2B KATP channels” value ([2]; up to 100 μM)?
Answer: concentration-dependent hyperpolarization

Question: What about the “Maximum concentration of levcromakalim in plasma” value ([3]; after topical 10 mM CKLP1) of the same compound?
Answer: 1.2 ± 0.2 ng/mL

Question: And the “concentration of levcromakalim found in plasma” value ([3]; after topical CKLP1)?
Answer: 1 ng/mL

Question: What about the AUC ([3]; hound, dog, plasma, topical or ocular, 10 mM) of the same compound?
Answer: 3.88 ng·h/mL

Question: What about the AUC(0-t) [3, 4] of the same compound?
Answer: 5.09 ng·h/mL

Question: And the Cmax [3, 4]?
Answer: 1.3 ng/mL

Question: What about the Tmax ([3]; hound, dog, plasma, topical or ocular, 10 mM CKLP1, 50 µL in each of both eyes, levcromakalim after topical 10 mM CKLP1 once daily, Day 1, read-out: Tmax (converted)) of the same compound?
Answer: 2 h

Question: And the AUC(0-t) [3, 5]?
Answer: 6.3 ng·h/mL

Question: What about the Cmax [3, 5] of the same compound?
Answer: 1.4 ng/mL

Question: What about the Tmax ([3]; hound, dog, plasma, topical or ocular, 10 mM CKLP1, 50 µL in each of both eyes, levcromakalim after topical 10 mM CKLP1 once daily, Day 4, read-out: Tmax (converted)) of the same compound?
Answer: 2 h

Question: And the AUC(0-t) [3, 6]?
Answer: 2.67 ng·h/mL

Question: And the Cmax [3, 6]?
Answer: 1 ng/mL

Question: And the Tmax ([3]; hound, dog, plasma, topical or ocular, 10 mM CKLP1, 50 µL in each of both eyes, levcromakalim after topical 10 mM CKLP1 once daily, Day 8, read-out: Tmax (converted))?
Answer: 2 h

Question: What about the half-life ([3]; hound, dog, plasma, topical or ocular, 10 mM, levcromakalim after topical 10 mM CKLP1 once daily, Day 1) of the same compound?
Answer: 1.24 h

Question: And the half-life ([3]; hound, dog, plasma, topical or ocular, 10 mM, levcromakalim after topical 10 mM CKLP1 once daily, Day 4)?
Answer: 1.46 h

Question: And the half-life ([3]; hound, dog, plasma, topical or ocular, 10 mM, levcromakalim after topical 10 mM CKLP1 once daily, Day 8)?
Answer: 2.11 h

Question: And the Tmax ([3]; hound, dog, plasma, topical or ocular, 10 mM, time of maximum concentration (Tmax) of levcromakalim, after topical 10 mM CKLP1)?
Answer: ~2 h

Question: And the half-life ([3]; hound, dog, plasma, topical, 10 mM, as stated in the summary)?
Answer: 2 h

Question: And the Clast [3, 7]?
Answer: 0.1 ng/mL

Question: What about the Tlast [3, 7] of the same compound?
Answer: 480 min

Question: And the Clast [3, 8]?
Answer: 0.1 ng/mL

Question: And the Tlast [3, 8]?
Answer: 480 min

Question: What about the Clast [3, 9] of the same compound?
Answer: 0.5 ng/mL

Question: What about the Tlast [3, 9] of the same compound?
Answer: 240 min
